Measured values published in patent US20210221843A1, “EPHA2 AGONISTS AND USES THEREOF” (THE REGENTS OF THE UNIVERSITY OF CALIFORNIA, priority 2018, published 2021).
Entries after “also recorded” stand apart in the source; their conditions may differ. One block for each molecule: values may come before it. Starred links: 1 amine or outer side, 2 acyl side, 3 side chain; linkers in the order of their positions; H or OH if unused. Non-standard residues stand in square brackets, D forms with d. Residues, ends and D or L forms follow the SMILES beside them. *: point of attachment. Dap(4-FSB) = (S)-2-amino-3-(4-(fluorosulfonyl)benzamido)propanoic acid, O=C(NC[C@H](N[*:1])C(=O)[*:2])c1ccc(S(=O)(=O)F)cc1; 7‑MethoxyBenzofuranoic = N-terminus modified by (7-methoxybenzofuran-2-yl)-methanone, COc1cccc2cc(C(=O)*)oc12; Phenoxyacetyl(3-Cl,4-F) = O=C(COc1ccc(F)c(Cl)c1)*; Dap = NC[C@H](N)C(=O)O

Key:
EphA2 [1] = biological target: T1, EphA2 (Homo sapiens, UniProt P29317); experiment: Covalent gel shift with EphA2; type: biochemical; details: compounds incubated 10:1 for 2 hours at room temperature
Description: Covalent adduct formation of EphA2 with 147A5 and 147A6, respectively, were confirmed by covalent gel shift. Compounds were incubated 10:1 for 2 hours at room temperature.

BxPC3 cells [2] = experiment: Time-lapse scratch wound cell-migration assay; type: cell-based; details: 2.5 μM
Description: Cell-migration assay: Cells were cultured in 96-well ImageLock plates (Sartorius). Next day, wells were scratched using the WoundMaker (Sartorius). Subsequently, cells were washed twice with PBS and treated with the indicated compounds in RPMI-1640 complete media. Subsequently, cells were imaged every 6 h using IncuCyte S3 (Sartorius) and relative wound areas were analyzed using the algorithm of the imager cell migration software module.

BxPC3 cells [3] = experiment: Time-lapse scratch wound cell invasion assay (Matrigel); type: cell-based; details: scratch wound through Matrigel, 2.5 μM
Description: Cell invasion assay: Matrigel (Corning) was diluted in serum-free RPMI-1640 media (1:100), 50 µL of the mixture was added to ImageLock plate and incubated at 37° C. for 2 h. Next, excess media were aspirated and cells in complete media were plated and left overnight in humidified cell culture incubator. The following day, cell culture plate was aspirated, scratched with the WoundMaker, and washed twice with PBS. Subsequently, the plate was coated with a mixture of Matrigel and cold serum-free RPMI-1640 (1:1) and left in the incubator to solidify for 30 min. Finally, 100 µL of 1.5× compound-media mixture was added to the plate at various concentrations. The healing of the scratches was imaged and calculated similar to the migration assay.

EphA2 [4] = biological target: T1, EphA2; experiment: Western blot of total EphA2 and pEphA2 S897 in PANC-1 cells; type: cell-based; parameters: endogenous in cells; host or cells: PANC-1
EphA2 [5] = biological target: T1, EphA2; experiment: Western blot of total EphA2 and pEphA2 S897 in BxPC3 cells; type: cell-based; parameters: endogenous in cells; host or cells: BxPC3; PANC-1; details: 3 hours treatment
EphA2 [6] = biological target: T1, EphA2; experiment: Immunofluorescence of EphA2 cellular localization in BxPC3 cells; type: cell-based; parameters: endogenous in cells; host or cells: BxPC3; PANC-1; details: 30 min treatment, 1 μM 135H12
Description: FIG. 4A-D. Dimeric EphA2 agonists degrade EphA2 receptors in cancer cells. […] BxPC3 cell line was treated with the indicated doses for 3 hours, then cells were lysed and Western blot studies were performed. […] BxPC3 or PANC-1 cells were treated and lysed similar to the previous Western blot. […] EphrinA1-Fc is a clustered natural ligand and used as a positive control. […] Moreover, the receptor band disappeared after 1 hour of treatment. […] Cells were immunostained with EphA2 antibody (light) and nuclei were counterstained with DAPI (dark). […] Images were acquired using confocal Inverted Zeiss 880.
In chamber slides, cells were plated and allowed to adhere overnight in humidified cell culture incubators. The following day, cells were treated with the indicated ligands for 30 min. Subsequently, cells were washed with PBS and fixed with 4% Formaldehyde (Polysciences, Inc.), then blocked and permeabilized with 5% FBS and 0.3% Triton™ X-100 for 1 h. Next, wells were washed and stained with anti-EphA2 antibody, followed by three washes and further incubation with Alexafluor goat anti-mouse 488 secondary antibody (ThermoFisher). Cells were counterstained with DAPI and mounted with Prolong Diamond Antifade (ThermoFisher). Images were acquired with confocal microscope Zeiss 880 Airyscan and processed using Adobe Photoshop CC.

EphA2-LBD = EphA2-LBD (Homo sapiens, UniProt P29317); experiment: DELFIA displacement assay (displacement of biotinylated 123B9 from EphA2-LBD)
EphA2 [7] = biological target: T1, EphA2; experiment: EphA2 receptor phosphorylation assay in HEK293 cells (immunoprecipitation, anti-phosphotyrosine blot); type: cell-based; parameters: endogenous in cells; PANC-1; details: various doses

T1 sequence (P29317 24-976): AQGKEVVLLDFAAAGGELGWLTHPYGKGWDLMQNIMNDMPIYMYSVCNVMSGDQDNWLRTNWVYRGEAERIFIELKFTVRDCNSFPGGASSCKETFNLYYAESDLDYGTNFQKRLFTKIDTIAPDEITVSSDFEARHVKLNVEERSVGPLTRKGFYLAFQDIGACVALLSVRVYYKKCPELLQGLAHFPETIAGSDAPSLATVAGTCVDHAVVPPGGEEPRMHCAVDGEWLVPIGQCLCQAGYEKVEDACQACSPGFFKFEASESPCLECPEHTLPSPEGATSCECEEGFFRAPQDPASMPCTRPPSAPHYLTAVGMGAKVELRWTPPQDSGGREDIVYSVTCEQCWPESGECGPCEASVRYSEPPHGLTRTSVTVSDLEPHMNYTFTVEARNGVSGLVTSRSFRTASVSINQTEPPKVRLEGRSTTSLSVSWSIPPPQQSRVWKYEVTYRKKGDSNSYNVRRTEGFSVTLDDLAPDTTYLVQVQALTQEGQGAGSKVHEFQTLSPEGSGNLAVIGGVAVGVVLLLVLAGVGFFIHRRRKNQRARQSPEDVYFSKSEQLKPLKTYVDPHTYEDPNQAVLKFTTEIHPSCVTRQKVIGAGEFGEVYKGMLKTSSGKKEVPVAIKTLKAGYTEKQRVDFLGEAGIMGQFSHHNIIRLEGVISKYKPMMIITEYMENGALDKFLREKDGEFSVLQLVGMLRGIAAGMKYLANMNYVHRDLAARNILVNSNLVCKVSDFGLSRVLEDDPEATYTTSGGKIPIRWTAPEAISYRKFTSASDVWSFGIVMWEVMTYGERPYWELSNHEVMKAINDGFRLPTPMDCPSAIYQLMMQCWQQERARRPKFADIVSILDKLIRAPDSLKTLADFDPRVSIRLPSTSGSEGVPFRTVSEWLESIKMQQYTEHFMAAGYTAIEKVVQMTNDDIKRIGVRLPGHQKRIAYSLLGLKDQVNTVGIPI
Sequence of EphA2-LBD (P29317 28-206 limits assumed): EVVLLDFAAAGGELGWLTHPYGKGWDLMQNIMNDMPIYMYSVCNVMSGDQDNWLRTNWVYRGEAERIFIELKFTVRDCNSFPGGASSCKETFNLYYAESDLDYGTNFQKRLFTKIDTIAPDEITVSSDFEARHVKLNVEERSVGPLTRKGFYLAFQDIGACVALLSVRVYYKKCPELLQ

covalent adduct formation with EphA2 (EphA2 [1]): confirmed
Molecule: (7-MethoxyBenzofuranoic)LAYPDAVP-Dap(3-FSB)-RP-CONH2 ({7‑MethoxyBenzofuranoic}-LAYPDAVP[Dap(3-FSB)]RP-NH2) [147A6]

Molecule: COc1ccc(C[C@H](NC(=O)[C@H](C)NC(=O)[C@H](CC(C)C)NC(=O)c2oc3c(OC)c(OC)ccc3c2C)C(=O)N2CCC[C@H]2C(=O)N[C@@H](CC(=O)O)C(=O)N[C@@H](C)C(=O)N[C@H](C(=O)N2C[C@H](O)C[C@H]2C(=O)N[C@@H](Cc2ccc(Cl)cc2)C(=O)N[C@@H](CCCNC(=N)N)C(=O)N2CCC[C@H]2C(N)=O)C(C)C)cc1 [135H11, XLA(4MeTyr)PDAV(Hyp)(4ClPhe)RP-CONH2]
inhibition of cell migration (BxPC3 cells [2]): inhibit cell migration
inhibition of cell invasion (BxPC3 cells [3]): inhibited cell invasion; also recorded: equally effective in suppressing cell invasion at low micromolar concentration
degradation of total EphA2 and dephosphorylation of pEphA2 S897 (EphA2 [4]): more effective than the monomer 123B9; also recorded: orders of magnitude more effective than 123B9 in causing EphA2 degradation and suppressing oncogenic pSer897-EphA2
degradation of total EphA2 and dephosphorylation of pEphA2 S897 (EphA2 [5]): more effective than the monomer 123B9; also recorded: orders of magnitude more effective than 123B9 in causing EphA2 degradation and suppressing oncogenic pSer897-EphA2
EphA2 cellular localization (EphA2 [6]): located at the cell membrane; also recorded: fluorescence localized at the cell membrane

covalent adduct formation with EphA2 (EphA2 [1]): confirmed
Molecule: (7-MethoxyBenzofuranoic)LAYPDAVP-Dap(4-FSB)-RP-CONH2 ({7‑MethoxyBenzofuranoic}-LAYPDAVP[Dap(4-FSB)]RP-NH2; SMILES COc1cccc2cc(C(=O)N[C@@H](CC(C)C)C(=O)N[C@@H](C)C(=O)N[C@@H](Cc3ccc(O)cc3)C(=O)N3CCC[C@H]3C(=O)N[C@@H](CC(=O)O)C(=O)N[C@@H](C)C(=O)N[C@H](C(=O)N3CCC[C@H]3C(=O)N[C@@H](CNC(=O)c3ccc(S(=O)(=O)F)cc3)C(=O)N[C@@H](CCCNC(=N)N)C(=O)N3CCC[C@H]3C(N)=O)C(C)C)oc12) [147A5]

Molecule: CC(C)[C@H](NC(=O)[C@H](CO)NC(=O)[C@H](CC(=O)O)NC(=O)[C@@H]1CCCN1C(=O)[C@H](Cc1ccc(O)cc1)NC(=O)[C@H](C)NC(=O)[C@H](CO)NC(=O)COc1ccc(F)c(Cl)c1)C(=O)N1C[C@H](O)C[C@H]1C(=O)N[C@@H](Cc1ccc(Cl)cc1)C(=O)N[C@@H](CCCNC(=N)N)C(=O)N1CCC[C@H]1C(=O)NCC(=O)NCCCC[C@H](NC(=O)CNC(=O)[C@@H]1CCCN1C(=O)[C@H](CCCNC(=N)N)NC(=O)[C@H](Cc1ccc(Cl)cc1)NC(=O)[C@@H]1C[C@@H](O)CN1C(=O)[C@@H](NC(=O)[C@H](CO)NC(=O)[C@H](CC(=O)O)NC(=O)[C@@H]1CCCN1C(=O)[C@H](Cc1ccc(O)cc1)NC(=O)[C@H](C)NC(=O)[C@H](CO)NC(=O)COc1ccc(F)c(Cl)c1)C(C)C)C(N)=O [135G4, [(4F,3ClPhOCH2CO)SAYPDSV(HYP)(4ClPhe)RPG]2-K-CONH2]
degradation of total EphA2 and dephosphorylation of pEphA2 S897 (EphA2 [5]): degraded total EphA2 receptor and phosphorylated pEphA2 S897 at nanomolar concentrations; also recorded: remarkably active in inducing receptor degradation and dephosphorylation of Ser897-EphA2 at sub-micromolar concentrations

Molecule: CC(C)[C@H](NC(=O)[C@H](CC(=O)O)NC(=O)[C@H](CC(=O)O)NC(=O)[C@@H]1CCCN1C(=O)[C@H](Cc1ccc(O)cc1)NC(=O)[C@H](C)NC(=O)[C@H](CN)NC(=O)COc1ccc(F)c(Cl)c1)C(=O)N1CCC[C@H]1C(=O)N[C@@H](Cc1ccccc1)C(=O)N[C@@H](CCCNC(=N)N)C(=O)N1CCC[C@H]1C(N)=O [135F11] ({Phenoxyacetyl(3-Cl,4-F)}-[Dap]AYPDDVPFRP-NH2)
IC50 (EphA2-LBD): > 200 µM

Molecule: CC(C)[C@H](NC(=O)[C@H](CO)NC(=O)[C@H](CC(=O)O)NC(=O)[C@@H]1CCCN1C(=O)[C@H](Cc1ccc(O)cc1)NC(=O)[C@H](C)NC(=O)[C@H](CO)NC(=O)COc1ccc(F)c(Cl)c1)C(=O)N1C[C@H](O)C[C@H]1C(=O)N[C@@H](Cc1ccc(Cl)cc1)C(=O)N[C@@H](CCCNC(=N)N)C(=O)N1CCC[C@H]1C(N)=O [135G3, (4F,3ClPhOCH2CO)SAYPDSV(Hyp)(4ClPhe)RP-CONH2]
induction of EphA2 receptor phosphorylation (EphA2 [7]): remarkably increased cellular activity in inducing tyrosine receptor phosphorylation compared to YSA

B1: ephrinA1-Fc: clustered natural ligand and used as a positive control (protein)
chain: DRHIVFWNSSNPKFREEDYTVHVQLNDYLDIICPHYEDDSVADAAMERYTLYMVEHQEYVACQPQSKDQVRWNCNRPSAKHGPEKLSEKFQRFTPFILGKEFKEGHSYYYISKPIYHQESQCLKLKVTVNGKITHNPQAHVNPQEKRLQADDPEVQVLHSIGYS
modifications: left off: a dimerising Fc or GST
notes: clustered natural ligand and used as a positive control
EphA2 cellular localization (EphA2 [6]): punctuated fluorescence was observed in the cytoplasm
